Assay results taken from patent US11382873B1, “Oral administration of ketamine” (Vitalis Analgesics LLC, priority 2021, dated 2022).
Like-named read-outs stand apart in the source and are kept apart here.

What was measured:
[1] = system: adult emergency department (ED) patients with acute musculoskeletal pain; assay: Reduction of acute musculoskeletal pain (NRS) in adult ED patients, trial of Example 1/5; details: NRS 0-10, 60 minutes post medication; doses of Table 1 (dual route ketamine 0.5 mg/kg + aspirin 325 mg; IV ketamine 0.3 mg/kg; IV morphine 0.1 mg/kg; MSIR 15 mg; Percocet 10 mg); comparators from similar trials, same center and protocol; FIG. 1
[2] = cited from earlier work
[3] = cited from earlier work; remark: listed apart in the source

With CN1CC[C@]23c4c5ccc(O)c4O[C@H]2[C@@H](O)C=C[C@H]3[C@H]1C5 [IV morphine, Morphine] the “Reduction of acute musculoskeletal pain” value [1] was 5.1 points.
In the case of CNC1(c2ccccc2Cl)CCCCC1=O (stereo not drawn) [intranasal (nebulized) ketamine, ketamine], the “Reduction of acute musculoskeletal pain” value [1] is reported as “about 4 points”.
For CNC1(c2ccccc2Cl)CCCCC1=O (stereo not drawn) [ketamine], the Bioavailability ([2]; IV) is listed as “about 100%”, the Elimination half-life ([2]; in vivo) is listed as 2 to 3 h and the Bioavailability ([2]; intramuscular injection) is listed as “about 93%”. The “Delay of serum peak concentration, GI absorption versus direct (oral mucosal) absorption” value ([2]; ketamine given concurrently through the GI, patent's own reasoning, no PK data shown) was 15 to 20 min, the Bioavailability ([2]; oral route) was 18-20% and the “Time at which maximal concentrations are reached” value ([2]; orally) was 30 min.
In the case of NC1(c2ccccc2Cl)CCCCC1=O (stereo not drawn) [norketamine], the “Plasma levels of the metabolite relative to ketamine” value ([2]; following oral administration of ketamine) is given as “three times higher”.
For CC(C)Cc1ccc(C(C)C(=O)O)cc1 (stereo not drawn) [oral ibuprofen, Ibuprofen], the “Reduction of acute musculoskeletal pain” value [1] was 2 points.
In the case of CN1CC[C@]23c4c5ccc(O)c4O[C@H]2[C@@H](O)C=C[C@H]3[C@H]1C5.O=S(=O)(O)O [oral morphine, Morphine Sulfate], the “Reduction of acute musculoskeletal pain” value [1] is reported as “about 4 points”.
For N[C@@H]1c2cccnc2[C@H](OC(=O)N2CCC(n3c(=O)[nH]c4ncccc43)CC2)CC[C@H]1c1cccc(F)c1F [rimegepant, Rimegepant], the Absolute oral bioavailability ([3]; in vivo, po) is listed as “approximately 64%”, the “Eliminated in unchanged form” value ([3]; in vivo) is listed as ~77 % of the dose and the “Major metabolites (i.e., >10%) detected in plasma” value ([3]; in vivo) is listed as “no major metabolites”. The “Time of maximum concentration” value ([3]; oral administration of NURTEC Orally Disintegrating Tablet) was 1.5 h.
